Test results from the supplement of paper PMC10307832.

Columns and labels:
Assay in all cases: relative viability (nuclei count vs DMSO), 5 days (fraction); higher = more cells survive
HARA = tested on: HARA
Method in brief: (§1)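 Lung cancer cell lines, seeded in 1536-well plates, were treated the following day by pin tool with a single drug or with five library-drug doses (not always all listed) in √10 steps on top of a fixed anchor-drug dose. Cells were fixed and nuclei stained in one step after 5 days, and nuclei were counted. Relative viability is the nuclei count for treated wells divided by that for vehicle wells, reported as medians of duplicate plates.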

NCI-H1975 = tested on: NCI-H1975
Method in brief: as §1

NCI-H2126 = tested on: NCI-H2126
Method in brief: as §1

NCI-H1666 = tested on: NCI-H1666
Method in brief: as §1

RERF-LC-KJ = tested on: RERF-LC-KJ
Method in brief: as §1

NCI-H1651 = tested on: NCI-H1651
Method in brief: as §1

NCI-H2085 = tested on: NCI-H2085
Method in brief: as §1

ABC-1 = tested on: ABC-1
Method in brief: as §1

NCI-H1734 = tested on: NCI-H1734
Method in brief: as §1

NCI-H838 = tested on: NCI-H838
Method in brief: as §1

NCI-H520 = tested on: NCI-H520
Method in brief: as §1

SW 900 = tested on: SW 900
Method in brief: as §1

A-427 = tested on: A-427
Method in brief: as §1

NCI-H460 = tested on: NCI-H460
Method in brief: as §1

NCI-H661 = tested on: NCI-H661
Method in brief: as §1

LCLC-103H = tested on: LCLC-103H
Method in brief: as §1

LOU-NH91 = tested on: LOU-NH91
Method in brief: as §1

NCI-H647 = tested on: NCI-H647
Method in brief: as §1

NCI-H727 = tested on: NCI-H727
Method in brief: as §1

BEN = tested on: BEN
Method in brief: as §1

CAL-12T = tested on: CAL-12T
Method in brief: as §1

NCI-H1944 = tested on: NCI-H1944
Method in brief: as §1

## CCNC(=O)c1noc(-c2cc(C(C)C)c(O)cc2O)c1-c1ccc(CN2CCOCC2)cc1 [Luminespib] + CC(=O)c1c(C)c2cnc(Nc3ccc(N4CCNCC4)cn3)nc2n(C2CCCC2)c1=O [Palbociclib] (partner 0.5 µM)
HARA; first compound 0.002 µM
  relative viability: 0.221
HARA; first compound 0.006325 µM
  relative viability: 0.221
HARA; first compound 0.02 µM
  relative viability: 0.213
HARA; first compound 0.06325 µM
  relative viability: 0.253
HARA; first compound 0.2 µM
  relative viability: 0.11
NCI-H1975; first compound 0.002 µM
  relative viability: 0.614
NCI-H1975; first compound 0.006325 µM
  relative viability: 0.469
NCI-H1975; first compound 0.02 µM
  relative viability: 0.363
NCI-H1975; first compound 0.06325 µM
  relative viability: 0.103
NCI-H1975; first compound 0.2 µM
  relative viability: 0.122
NCI-H2126; first compound 0.002 µM
  relative viability: 0.337
NCI-H2126; first compound 0.006325 µM
  relative viability: 0.325
NCI-H2126; first compound 0.06325 µM
  relative viability: 0.351
NCI-H2126; first compound 0.2 µM
  relative viability: 0.393
NCI-H1666; first compound 0.002 µM
  relative viability: 0.647
NCI-H1666; first compound 0.006325 µM
  relative viability: 0.67
NCI-H1666; first compound 0.02 µM
  relative viability: 0.673
NCI-H1666; first compound 0.06325 µM
  relative viability: 0.705
NCI-H1666; first compound 0.2 µM
  relative viability: 0.655
RERF-LC-KJ; first compound 0.002 µM
  relative viability: 1.04
RERF-LC-KJ; first compound 0.006325 µM
  relative viability: 1.01
RERF-LC-KJ; first compound 0.02 µM
  relative viability: 1.02
RERF-LC-KJ; first compound 0.06325 µM
  relative viability: 0.269
RERF-LC-KJ; first compound 0.2 µM
  relative viability: 0.227
NCI-H1651; first compound 0.002 µM
  relative viability: 0.544
NCI-H1651; first compound 0.006325 µM
  relative viability: 0.521
NCI-H1651; first compound 0.02 µM
  relative viability: 0.408
NCI-H1651; first compound 0.06325 µM
  relative viability: 0.423
NCI-H1651; first compound 0.2 µM
  relative viability: 0.332
NCI-H2085; first compound 0.002 µM
  relative viability: 0.447
NCI-H2085; first compound 0.006325 µM
  relative viability: 0.434
NCI-H2085; first compound 0.02 µM
  relative viability: 0.453
NCI-H2085; first compound 0.06325 µM
  relative viability: 0.388
NCI-H2085; first compound 0.2 µM
  relative viability: 0.263
ABC-1; first compound 0.002 µM
  relative viability: 0.925
ABC-1; first compound 0.006325 µM
  relative viability: 0.876
ABC-1; first compound 0.02 µM
  relative viability: 0.494
ABC-1; first compound 0.06325 µM
  relative viability: 0.286
ABC-1; first compound 0.2 µM
  relative viability: 0.245
NCI-H1734; first compound 0.002 µM
  relative viability: 0.359
NCI-H1734; first compound 0.006325 µM
  relative viability: 0.389
NCI-H1734; first compound 0.02 µM
  relative viability: 0.334
NCI-H1734; first compound 0.06325 µM
  relative viability: 0.204
NCI-H1734; first compound 0.2 µM
  relative viability: 0.144
NCI-H838; first compound 0.002 µM
  relative viability: 0.233
NCI-H838; first compound 0.006325 µM
  relative viability: 0.252
NCI-H838; first compound 0.02 µM
  relative viability: 0.16
NCI-H838; first compound 0.06325 µM
  relative viability: 0.14
NCI-H838; first compound 0.2 µM
  relative viability: 0.105
NCI-H520; first compound 0.002 µM
  relative viability: 0.301
NCI-H520; first compound 0.006325 µM
  relative viability: 0.213
NCI-H520; first compound 0.02 µM
  relative viability: 0.176
NCI-H520; first compound 0.06325 µM
  relative viability: 0.121
NCI-H520; first compound 0.2 µM
  relative viability: 0.135
SW 900; first compound 0.002 µM
  relative viability: 0.577
SW 900; first compound 0.006325 µM
  relative viability: 0.566
SW 900; first compound 0.02 µM
  relative viability: 0.549
SW 900; first compound 0.06325 µM
  relative viability: 0.144
SW 900; first compound 0.2 µM
  relative viability: 0.134
A-427; first compound 0.002 µM
  relative viability: 0.516
A-427; first compound 0.006325 µM
  relative viability: 0.488
A-427; first compound 0.02 µM
  relative viability: 0.503
A-427; first compound 0.06325 µM
  relative viability: 0.467
A-427; first compound 0.2 µM
  relative viability: 0.258
NCI-H460; first compound 0.002 µM
  relative viability: 0.288
NCI-H460; first compound 0.006325 µM
  relative viability: 0.126
NCI-H460; first compound 0.02 µM
  relative viability: 0.0359
NCI-H460; first compound 0.06325 µM
  relative viability: 0.0096
NCI-H460; first compound 0.2 µM
  relative viability: 0.0106
NCI-H661; first compound 0.002 µM
  relative viability: 0.427
NCI-H661; first compound 0.006325 µM
  relative viability: 0.396
NCI-H661; first compound 0.02 µM
  relative viability: 0.315
NCI-H661; first compound 0.06325 µM
  relative viability: 0.309
NCI-H661; first compound 0.2 µM
  relative viability: 0.322
LCLC-103H; first compound 0.002 µM
  relative viability: 0.481
LCLC-103H; first compound 0.006325 µM
  relative viability: 0.454
LCLC-103H; first compound 0.02 µM
  relative viability: 0.447
LCLC-103H; first compound 0.06325 µM
  relative viability: 0.469
LCLC-103H; first compound 0.2 µM
  relative viability: 0.468
LOU-NH91; first compound 0.002 µM
  relative viability: 0.557
LOU-NH91; first compound 0.006325 µM
  relative viability: 0.533
LOU-NH91; first compound 0.02 µM
  relative viability: 0.503
LOU-NH91; first compound 0.06325 µM
  relative viability: 0.375
LOU-NH91; first compound 0.2 µM
  relative viability: 0.354
NCI-H647; first compound 0.002 µM
  relative viability: 0.442
NCI-H647; first compound 0.006325 µM
  relative viability: 0.396
NCI-H647; first compound 0.02 µM
  relative viability: 0.207
NCI-H647; first compound 0.06325 µM
  relative viability: 0.0721
NCI-H647; first compound 0.2 µM
  relative viability: 0.0558
NCI-H727; first compound 0.002 µM
  relative viability: 0.668
NCI-H727; first compound 0.006325 µM
  relative viability: 0.665
NCI-H727; first compound 0.02 µM
  relative viability: 0.631
NCI-H727; first compound 0.06325 µM
  relative viability: 0.45
NCI-H727; first compound 0.2 µM
  relative viability: 0.424
BEN; first compound 0.002 µM
  relative viability: 0.472
BEN; first compound 0.006325 µM
  relative viability: 0.468
BEN; first compound 0.02 µM
  relative viability: 0.438
BEN; first compound 0.06325 µM
  relative viability: 0.409
BEN; first compound 0.2 µM
  relative viability: 0.323
CAL-12T; first compound 0.002 µM
  relative viability: 0.601
CAL-12T; first compound 0.006325 µM
  relative viability: 0.467
CAL-12T; first compound 0.02 µM
  relative viability: 0.161
CAL-12T; first compound 0.06325 µM
  relative viability: 0.11
CAL-12T; first compound 0.2 µM
  relative viability: 0.0956
NCI-H1944; first compound 0.002 µM
  relative viability: 0.309
NCI-H1944; first compound 0.006325 µM
  relative viability: 0.389
NCI-H1944; first compound 0.02 µM
  relative viability: 0.249
NCI-H1944; first compound 0.06325 µM
  relative viability: 0.316
NCI-H1944; first compound 0.2 µM
  relative viability: 0.303
